The numbers were not newly measured in US20110183941A1 (priority 2010, published 2011), which cites them from elsewhere.

SMILES strings stand for the structures.

The conditions of this data set: at room temperature.

Turning to `O=C(O)CNCP(=O)(O)O` [glyphosate], the solubility is 1.5%.
